According to patent publication US11225481B2 (Centre national de la recherche scientifique, priority 2015, dated 2022):
Where two headings read alike, the source gives them in different places.

Tests used:
BRD4(BD1) [1] = biological target: T1, BRD4(BD1) (Homo sapiens, UniProt O60885); experiment: HTRF assay, disruption of bromodomain/histone peptide interaction; type: binding
T1 construct: a BRD4(BD1) synthetic gene that includes a TEV cleavage site was purchased from LifeTechnology; made in house
How it was run: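 GST-tagged BRD4(BD1) mixed with histone peptide, then HTRF donor/acceptor added, in the presence of compound (1% final DMSO) and incubated overnight at room temperature. Read at 337 nm excitation, 665/620 nm emission ratio. Percent inhibition set against DMSO vehicle (max) and no-peptide (min) signals; IC50 measured in triplicate.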

BRD2(BD1) = biological target: T2, BRD2(BD1) (Homo sapiens, UniProt P25440); experiment: HTRF bromodomain selectivity profile; type: binding; settings: Table 3 selectivity profile
T2 construct: purchased BPS Bioscience
T2 sequence (P25440 74-180 limits assumed): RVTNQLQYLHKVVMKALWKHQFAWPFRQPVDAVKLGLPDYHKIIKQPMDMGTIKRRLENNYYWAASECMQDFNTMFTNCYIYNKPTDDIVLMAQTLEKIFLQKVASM
Procedure: (§1) HTRF assays were performed in white 384 Well Small Volume™ HiBase Polystyrene Microplates (Greiner) with a total working volume of 20 μL. Compounds were dispensed, with 200 nL per well (1% final DMSO), from a concentration stock of 1 mM in 100% DMSO and with serial DMSO dilutions, using a Mosquito Crystal pipetting robot platform (TTP labtech). The IC50 measurements were performed in triplicates (Table 2 and 3). All HTRF reagents were purchased from CisBio Bioassays and reconstituted according to the supplier protocols. For each assay 14.7 μL of mix 1 (protein+peptide) is added in the assay wells, containing previously dispensed inhibitors, according to the final concentration and buffer described in Table 4, using a Biomek NX MC pipetting robot (Beckman). Then, 5.1 μL of mix 2 (donnor+acceptor) is added. HTRF signals were measured, after a final incubation (overnight at room temperature), using a PHERAstar FS (BMG Labtech) with an excitation filter at 337 nm and fluorescence wavelength measurement at 620 and 665 nm, an integration delay of 60 μs and an integration time of 500 μs. Results were analyzed with a two-wavelengths signal ratio: [intensity (665 nm)/intensity (620 nm)]*10^4. Percentage of inhibition was calculated using the following equation: % inhibition=[(compound signal)−(min signal)]/[(max signal)−(min signal)]*100, where ‘max signal’ is the signal ratio with the compound vehicle alone (DMSO) and ‘min signal’ the signal ratio without peptide.
(§2) Selectivity profiles of bromodomain inhibitors were performed as described in HTRF screen section. […] HTRF detection reagents (EPIgeneous™ Binding Domain kits) were purchased from Cisbio Bioassays and used according to supplier's protocol. GST tagged bromodomain proteins were purchased from BPS Bioscience and histone peptide from Anaspec.

BRD2(BD2) = biological target: T3, BRD2(BD2) (Homo sapiens, UniProt P25440); experiment: HTRF bromodomain selectivity profile; type: binding; settings: Table 3 selectivity profile
T3 construct: purchased BPS Bioscience
T3 sequence (P25440 344-453 limits assumed): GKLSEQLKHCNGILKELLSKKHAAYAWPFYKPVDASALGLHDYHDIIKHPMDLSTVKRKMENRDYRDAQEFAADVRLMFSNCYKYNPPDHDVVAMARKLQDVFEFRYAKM
Procedure: as §1, §2

BRD4(BD2) = biological target: T4, BRD4(BD2) (Homo sapiens, UniProt O60885); experiment: HTRF bromodomain selectivity profile; type: binding; settings: Table 3 selectivity profile
T4 construct: purchased BPS Bioscience
Procedure: as §1, §2

BRDT(BD1) = biological target: T5, BRDT(BD1) (Homo sapiens, UniProt Q58F21); experiment: HTRF bromodomain selectivity profile; type: binding; settings: Table 3 selectivity profile
T5 construct: purchased BPS Bioscience
Procedure: as §1, §2

BRD4(BD1) [2] = biological target: T1, BRD4(BD1); experiment: Isothermal Titration Calorimetry; type: binding
Excerpt: For Isothermal Titration Calorimetry (ITC) and crystallogenesis, BRD4(BD1) was produced and purified using a histidine tag affinity chromatography as described by Filipakopoulos et al.9 For these experiments, a pNIC28-BSA4 expression vector containing BRD4(BD1) and a Tobacco Etch Virus (TEV) protease cleavage site have kindly been provided by Stefan Knapp laboratory from the SGC at the University of Oxford. After size exclusion chromatography, the fractions presenting pure BRD4(BD1) after TEV cleavage of the histidine tag were pooled and concentrated to 25 mg/mL for crystallogenesis. For ITC assays, the protein was concentrated up to at 6 mg/mL and the DTT was removed using a buffer exchange column (PD10 from GE healthcare) equilibrated with 10 mM HEPES pH=7.5, 150 mM NaCl. For Homogeneous Time Resolved Fluorimetry (HTRF) experiments, a BRD4(BD1) synthetic gene that includes a TEV cleavage site was purchased from LifeTechnology in a pDONR transport vector before cloning into a pDESTTM15 expression vector for GST affinity purification. Protein production and purification was carried out using similar protocols and buffers as used for the His-BRD4(BD1) system. Purification was carried on GST affinity resin (Thermo Scientific) and reduced glutathione was used for protein release. GST-BRD4(BD1) was further purified by size exclusion chromatography on a Superdex 16/60 Hiload column (GE Healthcare) using 20 mM TRIS pH=8.0, 150 mM NaCl Buffer.
ITC was used to evaluate the thermodynamics parameters of the binding between BRD4(BD1) and the selected compounds, using ITC conditions previously described by Filippakopoulos et al.8 Purified BRD4(BD1) was extensively dialyzed in the ITC buffer containing 10 mM Hepes pH=7.5 and 150 mM NaCl. Compounds were diluted directly in the last protein dialysate prior to experiments. Titrations were carried out on a MicroCal ITC200 microcalorimeter (GE Healthcare, Piscataway, N.J.). Each experiment was designed using a titrant concentration (protein in the syringe) set 10 to 15 times the analyte concentration (compound in the cell generally between 10 and 35 μM) and using 13 injections at 35° C. A first small injection (generally 0.2 μL) was included in the titration protocol in order to remove air bubbles trapped in the syringe prior titration. Raw data were scaled after setting the zero to the titration saturation heat value. Integrated raw ITC data were fitted to a one site non-linear least squares fit model using the MicroCal Origin plugin as implemented in Origin 7 (Origin Lab). Finally, ΔG and TΔS values were calculated from the fitted ΔH and KA values using the equations ΔG=−R.T. ln KA and ΔG=ΔH−TΔS.

Jurkat cells = experiment: Cell Titer-Glo cell viability (cytotoxicity experiments); type: cell-based; settings: Homo sapiens, 72 h incubation at 37° C., read-out: EC50, Jurkat T cells viability
Procedure: The human leukemia cell line Jurkat (ATCC® TIB-152) was maintained in RPMI-1640 medium supplemented with 10% FBS at 37° C. and 5% CO2. Human osteosarcoma cell line (U2OS, ATCC® HTB-96™) was maintained in DMEM supplemented with 10% FBS at 37° C. and 5% CO2.
In antiproliferative assays, compounds were assayed for their growth inhibiting activity towards the described cancer cell lines using the Cell Titer-Glo Luminescent Cell Viability Assay as described by the manufacturer (Promega Corporation). Briefly, […] cells were plated onto 96 well-plates (white with clear bottom (3610, Corning Costar)) in 100 μL media per well immediately before assay. Compounds were added at different concentrations (ranging from 100 to 0.05 μM) to each well and cell cultures were incubated 37° C. during 72 h. Vehicle (DMSO) was used as control and all compounds were tested in constant percentage of DMSO (1%). After addition of 50 μL Cell Titer-GLO, Luminescence was measured using a Centro luminometer LB960 (Berthold). Dose-response curves were generated and effective dose 50 values (EC50) were calculated using non-linear regression analysis (Graph Pad Prism).

BET bromodomains = experiment: Selectivity profile across BET bromodomains (HTRF); type: binding
Procedure: as §2

- IC50 (BRD4(BD1) [1]; HTRF, Table 1′, TABLE 2, read-out: BRD4(BD1) IC50): 5 µM
- IC50 (BRD4(BD1) [1]; HTRF, mean ± SD of three experiments, Table 2, read-out: IC50 μM, effect on BRD4(BD1) activity): 5 µM
- LE (Ligand Efficiency) (BRD4(BD1) [1]; LE = 1.4(−log(IC50)/N), BRD4(BD1)): 0.22
- IC50 (BRD4(BD1) [1]; Table 3 selectivity profile, mean ± SD of three experiments, read-out: IC50 (μM) BRD4(BD1)): 5 ± 0.1 µM
- IC50 (BRD2(BD1)): 59 ± 2.9 µM
- IC50 (BRD2(BD2)): > 100 µM
- IC50 (μM) BRD2(BD2) (BRD2(BD2)): no detectable inhibition
- IC50 (BRD4(BD2)): > 100 µM
- IC50 (μM) BRD4(BD2) (BRD4(BD2)): no detectable inhibition
- IC50 (BRDT(BD1)): > 100 µM
- entropy term −TΔS (BRD4(BD1) [2]; ITC, BRD4(BD1)): -7.1 kcal/mol
- Kd (BRD4(BD1) [2]; Isothermal Titration Calorimetry): 1.4 µM
- fold lower IC50 towards BRD4(BD1) as compared to its relatives BD1 (BET bromodomains; HTRF): 10 fold
Structure (SMILES): CCCCc1c(C)nc2nc(SCc3nc4c(c(=O)[nH]c(=O)n4CCCC)n3CC)nn2c1C [Compound 26b, 3-Butyl-8-(6-butyl-5,7-dimethyl-[1,2,4]triazolo[1,5-a]pyrimidin-2-ylsulfanylmethyl)-7-ethyl-3,7-dihydro-purine-2,6-dione]
- EC50 (Jurkat cells): 27 µM
- selectivity profile among BET bromodomains (BET bromodomains; in words): selective towards BRD4(BD1)
